Tested on: A172 glioblastoma cells
Test: Cell viability, Trypan blue exclusion assay
Type: cell-based
Settings: Homo sapiens, A 172, TMZ 10 μM for 144 hours in combination with 24-hour QMR treatment (4 MHz current waves), vs TMZ alone, FIG. 12b, read-out: cell viability reduced more than the reduction obtained in cells treated with TMZ drug alone
Experimental: Glioblastoma cell lines A172, T98G and U87MG were used. A172 and T98G cells (Sigma-Aldrich, St. Louis, MO, USA) were cultured in Dulbecco's Modified Eagle's Medium/Nutrient Mixture F-12 (DMEM/F12 GlutaMAX, Gibco, Thermo Fisher Scientific, Waltham, MA, USA) added with 10% foetal bovine serum (FBS) (Qualified Australian, Gibco, Thermo Fisher Scientific) and 1% penicillin/streptomycin (Sigma-Aldrich).
The cell lines were stimulated with QMR using a prototype QMR device from the company Telea (Telea Electronic Engineering, Sandrigo, VI, Italy). The device, suitably adapted for the present in vitro experiments, generated high-frequency sinusoidal alternating electric current waves of 4 MHz with harmonics from 4 to 64 MHz and had the following data: power supply 100÷230 V˜50/60 Hz; maximum output power, 5 W/400Ω.
QMR was applied to the cells using a pair of electrodes that were placed inside a 100 mm Petri dish, at the edge, and connected to the generator device. […] This value was measured by means of three independent measurements with a data-logger probe (iLog, Escort Scunthorpe, UK) placed in the culture medium. […]
For these analyses, the cells were treated for 144 hours with 10-25 μM of TMZ administered at the same time as or after QMR stimulation. […] Cell viability, apoptosis and the cell cycle were assessed after 144 hours. […]

## Cn1nnc2c(C(N)=O)ncn2c1=O [TMZ, temozolomide]
  cytotoxicity at 10 µM: ~12%
